Experimental data from PubChem BioAssay (NCI).
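Growth conditions: 96-well plates. Treatment: test compound, 48 hours, 5 concentrations. Analysis: linear interpolation between bracketing concentrations; unreached endpoints set to highest concentration. The concentration for 50% growth inhibition is given as GI50. TGI: concentration producing complete growth inhibition.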

Assays:
Assay in all cases: NCI tumour cell line growth inhibition, 48 h
SW-620 colon = system: SW-620 colon
KM12 colon = system: KM12 colon
SF-539 CNS = system: SF-539 CNS
BT-549 breast = system: BT-549 breast
NCI-H522 lung = system: NCI-H522 lung
SK-OV-3 ovarian = system: SK-OV-3 ovarian
EKVX NSCLC = system: EKVX NSCLC
CAKI-1 renal = system: CAKI-1 renal
SNB-75 CNS = system: SNB-75 CNS
RXF 393 renal = system: RXF 393 renal

Row | SMILES | TGI (SW-620 colon) [µM] | TGI (KM12 colon) [µM] | TGI (SF-539 CNS) [µM] | TGI (BT-549 breast) [µM] | TGI (NCI-H522 lung) [µM] | TGI (SK-OV-3 ovarian) [µM] | TGI (EKVX NSCLC) [µM] | TGI (CAKI-1 renal) [µM] | TGI (SNB-75 CNS) [µM] | TGI (RXF 393 renal) [µM] | GI50 (SW-620 colon) [µM] | GI50 (KM12 colon) [µM] | GI50 (SF-539 CNS) [µM] | GI50 (BT-549 breast) [µM] | GI50 (NCI-H522 lung) [µM] | GI50 (SK-OV-3 ovarian) [µM] | GI50 (EKVX NSCLC) [µM] | GI50 (CAKI-1 renal) [µM] | GI50 (SNB-75 CNS) [µM]
1 | FC(F)(F)c1cccc(COCCN2CCN(Cc3cccc(C(F)(F)F)c3)CC2)c1 | 28.3 | 35.8 | 39 | 29.6 | 26.5 | 31.1 | 23.4 | 31.3 | 26.3 |  |  |  |  |  |  |  |  |  | 
2 | CC1Cc2c(N)nc(NN)nc2NC1=O (stereo unspecified) | > 100 | > 100 | > 100 |  | > 100 | > 100 | > 100 |  | > 100 | > 100 |  |  |  |  |  |  |  |  | 
3 | C=C1C[C@@H]2C/C=C/C(=O)C/C(C)=C\C=C\C(=O)O[C@H](C=O)C/C(C)=C/[C@H](C1)O2 | 15.7 | 12.2 | 1.64 | 0.94 | 19.5 | > 100 | 21.2 | 26 | 1.96 |  | 0.449 | 1.17 | 0.328 | 0.315 | 4.48 | 5.36 | 3.68 | 4.71 | 0.294
4 | S=c1nc(Oc2ccc(Cl)c(Cl)c2)[nH]c(=S)[nH]1 | > 100 | 33.6 | > 73.1 | > 100 | 38.2 | > 100 | > 93.9 | > 100 | > 84.5 |  |  |  |  |  |  |  |  |  | 
5 | CN(C)CC(/C(Cc1ccccc1)=N\NC(=O)c1ccncc1)c1ccccc1 (stereo unspecified) | > 100 |  | > 100 |  | > 100 | > 100 | 68.1 | > 100 | 92.8 | > 100 |  |  |  |  |  |  |  |  | 
6 | O=C1CCCCCCCCCCC(=O)C2CCOCCOCCOCCC1Cc1cccc(n1)C2 | > 100 | > 100 | > 100 |  | > 100 | > 100 | > 100 | > 100 | > 100 | > 100 |  |  |  |  |  |  |  |  | 
7 | Cc1cc(O)c(C(=O)CC2(O)C(=O)Nc3c(Cl)cc(Cl)cc32)c(=O)o1 (stereo unspecified) | > 100 | > 100 | > 100 |  | > 100 | > 100 | > 100 | > 100 | 95.1 |  |  |  |  |  |  |  |  |  | 
8 | COc1ccc2nc(-c3ccccc3)cc(Nc3ccc(C(C)=O)cc3)c2c1 | 18.5 | 5.2 | 4.21 | 37.5 | > 100 | 36.9 | 20.5 |  | 42.5 |  | 5.08 | 1.88 | 2.37 | 15.3 | 17.7 | 16.1 | 5.98 |  | 17.9
9 | c1nc2cscc2c2cscc12 | > 100 | > 100 | > 100 |  | > 100 | > 100 |  | > 100 |  | > 100 |  |  |  |  |  |  |  |  | 
10 | Clc1ccc(-n2nnc(C3=NCCCN3)c2-c2ccccc2)cc1 | > 100 | > 100 | > 100 |  | > 100 | > 100 | > 100 | > 100 | > 100 | > 100 |  |  |  |  |  |  |  |  | 
